Experimental data from PMC9065678, “BI 1015550 is a PDE4B Inhibitor and a Clinical Drug Candidate for the Oral Treatment of Idiopathic Pulmonary Fibrosis” (Frontiers in Pharmacology, 2022).
Marks after values point to notes of the source that are not given here.

Key:
[1] = system: bleomycin-challenged mice; assay: Therapeutic bleomycin mouse model of lung fibrosis; format: in vivo
Procedure: Adult, test-naïve, male C57BL6/6J mice, aged 10–12 weeks from Charles River were used (weight 25–27 g). The model was performed essentially as described by [Ackermann et al. (2017)]. Briefly, bleomycin 1 mg/kg (Calbiochem, Darmstadt, Germany) was administered intratracheally in an application volume of 2 mL/kg body weight. Animals were weighed daily. […] BI 1015550 (at final doses of 2.5 and 12.5 mg/kg) was applied by oral gavage using a dose volume of 10 mL/kg twice daily (b.i.d.) from day 8 until day 13. On day 12, animals were anesthetized using 3–4% isoflurane, and lung density was assessed by micro-computed tomography (µCT) analysis with a Quantum FX µCT system (Perkin Elmer) with cardiac gating (without respiratory gating). Images were analyzed using MicroView 2.0 software (GE Healthcare). The Hounsfield unit (HU) corresponding to the peak of the HU-histogram for the segmented pixels was used as a measure of fibrosis. After µCT analysis, animals were allowed to awaken from anesthesia. On day 14, lung function [pressure-volume loops, FVC, and static lung compliance (Cstat)] was measured with a FlexiVent system (SCIREQ, Montreal, PQ, Canada). After the lung function measurement, animals were sacrificed by an overdose of Narcorene and lungs were lavaged with two-times 0.8 mL of PBS. BALF was used to determine differential cell counts (Sysmex XT-1800iVet) and the number of monocytes. Left lung lobes were fixed with 4% paraformaldehyde and inflated under 20 cm water pressure for 20 min. Samples were embedded in paraffin, sectioned (3 μm thickness), and stained for hematoxylin and eosin (HE) and Masson’s trichrome to assess general morphology and fibrotic change following standard histopathology operating protocols. Images were taken with an AxioCam MRm microscope camera using AxioVision software (Carl Zeiss Microscopy, LLC, White Plains, NY, United States). Lung sections stained with Masson’s trichrome were assessed for severity of pulmonary fibrosis using the Ashcroft score. The protocol used is therapeutic, i.e. treatment commenced at a time where lung fibrosis should have developed, in line with the recommendations of the American Thoracic Society panel on IPF models ([Jenkins et al., 2017]).

[2] = system: LPS-induced TNF-α release; assay: LPS-induced TNF-α release in human PBMCs; format: cell-based; conditions: 100 ng/mL LPS for 4 h
Procedure: Blood was donated by internal donors at the Center for Occupational Health at Boehringer Ingelheim in Biberach an der Riss, Germany; the donors provided signed informed consent that allows use for scientific purposes. All research was performed in accordance with the principles stated in the Declaration of Helsinki. Ethical approval was provided by the Federal State Medical Association of Baden-Württemberg, reference no. F-2016–121. For preparation of peripheral blood mononuclear cells (PBMCs), 200 mL freshly drawn human blood from healthy donors was mixed with 50 mL acid-citrate-dextrose solution (38 mmol/L citric acid, 75 mmol/L tri-sodium citrate and 121 mmol/L glucose) and 50 mL Hanks buffered saline solution (Thermo Fisher Scientific, Carlsbad, CA, United States), overlaid on Ficoll and centrifuged for 30 min at 300 x g. PBMCs were diluted in RPMI-1640 medium (Thermo Fisher Scientific) containing 6% (v/v) autologous plasma to a concentration of 5 × 10^6 cells/mL. […] Supernatants were taken and cytokines measured by enzyme-linked immunosorbent assay (ELISA; Becton Dickinson, Franklin Lakes, NJ, United States).

[3] = system: LPS-stimulated TNF-α release; assay: LPS-induced TNF-α release in human whole blood; format: cell-based; conditions: LPS 0.1 µg/mL
Procedure: Heparinized whole blood was collected from the Aorta abdominalis of WI (Han) male rats (Charles River Laboratories, Sulzfeld, Germany) and from healthy male human donors, and treated with 1 µL (rat) or 2.5 µL (human) of BI 1015550 or vehicle [final DMSO concentration 0.5% (v/v)]. Final assay volumes were 200 μL (rat) and 500 μL (human). After incubation for 30 min at 37°C, 95% humidity, and 5% CO2, cultures were treated with LPS [final concentration 10 µg/mL (rat), 0.1 µg/mL (human)] or saline. After 7 h, plates were centrifuged at 3.200 × g at 4°C for 10 min and plasma was used for cytokine measurement. Meso Scale Discovery (MSD) (Rockville, MD, United States) rat and human pro-inflammatory panels were used for detection of TNF-α and IL-6 in rat plasma [diluted 1:2 (v/v)]) and human plasma [negative control undiluted, other samples diluted 1:200 (v/v)] according to the manufacturer’s instructions.

[4] = mice, 2.5 mg/kg b.i.d. oral day 8 to day 13, measured day 14
[5] = mice, 12.5 mg/kg b.i.d. oral day 8 to day 13, measured day 14, 12.5 mg/kg

## [O-][S+]1CCc2nc(N3CCC(c4ncc(Cl)cn4)CC3)nc(NC3(CO)CCC3)c21 (centres unmarked) [BI 1015550]
[1]; bleomycin mice
  Effect on BALF protein and monocytes, airway compliance: no effects
[1]; bleomycin mice, data not shown
  Effect on weight gain: no significant effect
[1]; mice, 2.5 mg/kg b.i.d. oral day 8 to day 13
  Fibrosis < score, % improvement compared to bleomycin control: 2%
[1]; [4]
  Cstat (mL/cm H2O), % improvement compared to bleomycin control: 21%
  FVC (mL), % improvement compared to bleomycin control: 18%
[1]; mice, 2.5 mg/kg b.i.d. oral day 8 to day 13, µCT
  Ratio tissue density, % improvement compared to bleomycin control: 4%
[1]; mice, 12.5 mg/kg b.i.d. oral day 8 to day 13
  Fibrosis < score, % improvement compared to bleomycin control: 11%
[1]; [5]
  Cstat (mL/cm H2O), % improvement compared to bleomycin control: 40* %
  FVC (mL), % improvement compared to bleomycin control: 41%
[1]; mice, 12.5 mg/kg b.i.d. oral day 8 to day 13, µCT
  Ratio tissue density, % improvement compared to bleomycin control: 39%
[1]; mice, higher dose (12.5 mg/kg b.i.d.), p < 0.05
  Improvement in PV loops: 40%
[2]
  IC50: 35 nM
[3]
  IC50: 670 nM
  Maximal inhibition of TNF-α release: 70–80%
